How the values were obtained:
NIS = assay: Immunohistochemistry of NIS in tumor tissue; format: in vivo, Balb/c nude mice; details: xenograft tumor sections
From the text: (§1) At the end of the experiment, the mice were sacrificed, and the tumors were isolated from the mouse's right flank and fixed overnight with 4% formalin. The isolated tumors were embedded in paraffin, sectioned to a 4-μm thickness, and mounted on slides. The tumor sections on the slides were de-paraffinized and stained with hematoxylin & eosin. For immunohistochemistry, NIS (Thermo Fisher Scientific; diluted at 1:200) and cleaved caspase-3 (Cell signaling; diluted at 1:200) antibodies were used.

8505C cells [1] = assay: In vitro 125I uptake assay; format: cell-based, human; details: anaplastic thyroid cancer cells, 24 hours treatment
Method: 8505C cells (1.25×10^5) were seeded and incubated in a 24-well plate for 24 hours, and then treated with TKI-0266 and further incubated for 24 hours. Thereafter, the medium was removed, and the cells were washed with bHBSS (Hank's balanced salt solution containing 0.5% BSA). The cells were incubated with 500 μl of bHBSS, 3.7 kBq carrier-free ^125I (Perkin-Elmer), and 10 μmol/L sodium iodide (specific activity of 740 MBq/mmol) at 37° C. for 30 minutes. Thereafter, the cells were washed twice with cold bHBSS and lysed by adding 500 μL of 2% SDS solution thereto. Radioactivity was measured using a Cobra II gamma-counter (Canberra Packard, Canada). The ^125I uptake values were normalized by comparing the amount of total protein determined by BCA protein assay kit.

NIS promoter = NIS promoter activity by F-luc2 bioluminescence (BLI) in dual-reporter cells; format: cell-based, human; details: 8505C-PNIS-PCMV cells
From the text: A pNIS-FL2-TurboFP635-pCMV-Rluc recombinant vector expressing reporter genes driven by dual promoters was constructed by Cosmo Genetech, Ltd. (Republic of Korea) using a pNIS-FL2-TurboFP635 vector and a pcDNA3.1/Hygro(+) vector. Specifically, in order to screen a substance that increases the activity of NIS promoter, Firefly-luciferase2(F-luc2) and TurboFP635 were included downstream (clockwise) of the NIS promoter. In order count cells, CMV promoter and Renilla-luciferase (R-luc) were included upstream (counterclockwise) of the NIS promoter. The pNIS-FL2-TurboFP635 vector was provided from Dr. Abhijit De (ACTREC, India), and the pcDNA3.1/Hygro(+) vector was purchased from invitrogen (USA).
The 8505C cell line was transfected with the pNIS-FL2-TurboFP635-pCMV-Rluc recombinant vector using the Fu-GENE HD solution according to the protocols of the manufacturer (Promega). The ratio of the recombinant vector to the Fu-GENE HD solution was 1:4, and the transfected cells were selected using 600 μg/ml of geneticin (AG Scientific). The selected cell line that stably expresses the dual-reporter gene system is referred to herein as ‘8505C-PNIS-PCMV’ cell line.
To examine transcriptional regulation of the NIS (sodium iodide symporter) promoter, the 8505C-PNIS-PCMV cells were treated with a tyrosine kinase inhibitor (hereinafter referred to as TKI) library for 24 hours. Next, D-luciferin (150 μg/ml) was added to the cells, and the activity of NIS promoter was measured by IVIS Lumina III (Perkin-Elmer, Wellesley, Mass., USA). To normalize the NIS promoter activity to cell number, 10 μg/ml of h-coelenterazine was added to the cells, and the activity of R-luc was measured. The activity of F-luc2 was divided by the R-luc activity. The TKI library used in the experiment was obtained from the Korea Chemical Bank (www.chembank.org) in the Korea Research Institute of Chemical Technology (Republic of Korea). Among the TKI candidates, TKI-0266 was selected, purchased from Chemdiv (USA), dissolved in DMSO, and then stored at −80° C.

cleaved caspase-3 = assay: Immunohistochemistry of cleaved caspase-3 in tumor tissue; format: in vivo, Balb/c nude mice; details: co-administered with 131I and TKI-0266
From the text: as §1

8505C cells [2] = assay: 131I clonogenic assay; format: cell-based, human
Method: 8505C cells (4×10^5) cells were seeded in a six-well plate, and then treated with TKI-0266 and incubated for 24 hours. Next, the medium was removed, and the cells were washed twice with bHBSS, and then incubated in the presence or absence of 50 μCi/ml ^131I (KIRAMS, Korea) containing 30 μM NaI for 7 hours at 37° C. After incubation, the cells were washed twice with bHBSS, re-seeded in a new six-well plate at a density of 1,000 cells/well, and then incubated for 7 days to induce colony formation. On day 7, the medium was removed and the cells were washed twice with PBS. A fixation buffer containing acetic acid:methanol at a ratio of 1:7 was added to the cells and the plate was left to stand at room temperature for 5 minutes to fix colonies. The fixed colonies were stained with 0.05% crystal violet for 1 hour and immersed in tap water to remove crystal violet. The colonies containing 50 or more cells were counted. Percentage inhibition was calculated as the number of colonies formed in the TKI-0266-treated group relative to the vehicle control.

[3] = test system: anaplastic thyroid cancer xenograft (8505C-PNIS-PCMV); assay: Tumor growth inhibition in xenograft mice (tumor size, R-luc BLI); format: in vivo, Balb/c nude mice
Method: Female Balb/c nude mice, 5.5-week old with an average weight of 18.9±0.37 g (mean±standard deviation [SD]), were purchased (Hamamatsu, Shizuoka, Japan). The mice were acclimated under specific pathogen-free conditions for one week before starting the experiment, and were maintained at a temperature of 20 to 25° C. and a relative humidity of 40 to 70%. To establish anaplastic thyroid cancer xenograft mouse models, 8505C-PNIS-PCMV s (5×10^6) were mixed with Matrigel (Corning) at a ratio of 1:1 and injected subcutaneously into the right flank region of each mouse.
In addition, in order to evaluate the effect of TKI-0266 administration on the treatment of thyroid cancer, mice for use in the experiment were divided into four groups (n=5): the vehicle group; the ^131I-administered group (injected intraperitoneally with 1 mCi Na-^131I on day 2 of the experiment; the TKI-0266-administered group (injected intraperitoneally with 50 mg/kg of TKI-0266 for 5 days); and the group co-administered with ^131I and TKI-0266 (injected intraperitoneally with 50 mg/kg of TKI-0266 for 5 days, and injected intravenously with 1 mCi Na-^131I on day 2; n=5). To measure the degree of tumor growth, h-coelenterazine (15 μg/ml) was administered to the mice by intravenous injection, and then the R-luc activity was monitored by BLI every 5 days.

SMILES: Cc1cc2c(N(C)C3CCCCC3)ncnc2s1 [TKI-0266]
- expression of NIS-specific protein in tumor tissue (immunohistochemistry) (NIS): high
- iodine uptake compared to vehicle group (8505C cells [1]): significantly increased
- concentration showing the highest F-luc2 activity (NIS promoter): 12.5 µM
- BLI signal activity of F-luc2 (NIS promoter activity), increase (NIS promoter; 24 hours, screening): 3.19 fold
- BLI signal of F-luc2 as treatment concentration increased (NIS promoter; FIG. 7A): increased
- activity of NIS promoter (normalized by cell viability) as treatment concentration increased (NIS promoter; FIG. 8): increased
- expression of cleaved caspase-3 indicating cell death (immunohistochemistry) (cleaved caspase-3): the highest
- colony-forming ability compared to vehicle group (8505C cells [2]; TKI-0266 alone): decreased
- colony-forming ability compared to vehicle, 131I-treated and TKI-0266-treated groups (8505C cells [2]; co-treated with 131I and TKI-0266): significantly decreased
- tumor growth rate compared to vehicle group and 131I alone group ([3]; TKI-0266 alone, 50 mg/kg for 5 days): slow tumor growth rate
- tumor growth inhibitory effect among the four experimental groups ([3]; co-administered with 131I and TKI-0266): best tumor growth inhibitory effect
- R-luc signal intensity ([3]; co-administered with 131I and TKI-0266, day 6 after administration): decreased
- R-luc signal intensity ([3]; co-administered with 131I and TKI-0266, day 11 after administration): restored
- tumor size on days 6 and 11 ([3]; single agent administration): increase
